# Assay results as given in patent US10258635B2, “Formulations and compositions of vitamin D analogs for treating and preventing cancer and other diseases” (priority 2013, dated 2019).
# Entries after “also recorded” stand apart in the source; their conditions may differ.
# How the values were obtained:
# [1] = test system: PC-3 (androgen-insensitive prostate cancer) cells; experiment: 3H-thymidine incorporation assay, PC-3; format: cell-based; conditions: 10^−6 M; for growth reduction of PC-3 cells: relative to EtOH
# Description: (§1) Antiproliferation studies of keratinocytes (normal skin), MCF-7 (breast cancer), PZ-HPV-7 (immortalized normal prostate), LNcap (androgen-sensitive prostate cancer) and PC-3 (androgen-insensitive prostate cancer) cells, treated with 10^−6M of 25-OH-D3-3-BE (AMPI-105) or 1,25(OH)2D3 (bioactive Vitamin D3 hormone) were performed with a ^3H-thymidine incorporation assay
# (§2) PZ-HPV-7 cells were grown in MCDB media containing pituitary extract, epidermal growth factor (EGF) and 1% penicillin/streptomycin. Keratinocytes were also grown in the same media with additional PG1 and insulin. PC-3, LNCaP, DU-145 cells were grown in RPMI media containing 10% fetal bovine serum (FBS) and antibiotics. MCF-7 cells were grown in DMEM media containing 10% FBS and antibiotics. LAPC-4 cells were maintained in IMEM media containing antibiotics, 1° % L-glutamine and 10 nM of R1881, a synthetic […]. MC3T3 mouse bone cells were grown in α-MEM media containing 10% FBS and antibiotics. In general, cells were grown in 35 mm dishes to 70-80% confluence and then plated into 24-well plates in respective media. After the cells grew to approximately 70% confluence, they were serum-starved for 20 hours (MCF-7, PC-3, LNCaP and DU-145 cells) followed by incubation with steroid samples. Keratinocytes and PZ-HPV-7 cells, after reaching 70% confluence, were kept in MCDB media without additives for 20 hours before treatment with steroids. In general, reagents were dissolved in ethanol (EtOH), and dilution with the media was adjusted in such a way that the concentration of EtOH was 0.1% v/v.
# (§3) Assays were carried out with six (6) replicates and student's t-test was employed for statistical analysis. Results are expressed relative to EtOH (100%) in FIG. 24.
# [2] = test system: keratinocytes (normal skin); experiment: 3H-thymidine incorporation assay, keratinocytes; format: cell-based; conditions: 10^−6M
# Description: as §1
# as §2, with “Keratinocytes and PZ-HPV-7 cells, after reaching 70% confluence, were kept in MCDB media without additives for 20 hours before treatment with steroids. In general, reagents were dissolved in ethanol (EtOH), and dilution with the media was adjusted in such a way that the concentration of EtOH was 0.1% v/v.” left out
# [3] = test system: MCF-7 (breast cancer) cells; experiment: 3H-thymidine incorporation assay, MCF-7; format: cell-based; conditions: 10^−6M
# Description: as §1
# as §2, with “Keratinocytes and PZ-HPV-7 cells, after reaching 70% confluence, were kept in MCDB media without additives for 20 hours before treatment with steroids. In general, reagents were dissolved in ethanol (EtOH), and dilution with the media was adjusted in such a way that the concentration of EtOH was 0.1% v/v.” left out
# [4] = test system: PZ-HPV-7 (immortalized normal prostate) cells; experiment: 3H-thymidine incorporation assay, PZ-HPV-7; format: cell-based
# Description: as §1
# as §2, with “Keratinocytes and PZ-HPV-7 cells, after reaching 70% confluence, were kept in MCDB media without additives for 20 hours before treatment with steroids. In general, reagents were dissolved in ethanol (EtOH), and dilution with the media was adjusted in such a way that the concentration of EtOH was 0.1% v/v.” left out
# [5] = test system: LNCaP (androgen-sensitive prostate cancer) cells; experiment: 3H-thymidine incorporation assay, LNCaP (Example 13); format: cell-based
# Description: as §1, §2, §3
# LNCaP cells = experiment: Cell counting assay, LNCaP; format: cell-based; conditions: 24 hours; 10^−6 M 25-OH-D3-3-BE, 10^−7 M 1,25(OH)2D3; not serum-starved
# Description: as §2
# (§4) It should be noted that in this assay cells were not serum-starved prior to addition of the reagents, and 10^−7 M of 1,25(OH)2D3 had little effect on all the cells.
# LAPC-4 cells = experiment: Cell counting assay, LAPC-4; format: cell-based; conditions: 24 hours; 10^−6 M 25-OH-D3-3-BE, 10^−7 M 1,25(OH)2D3; not serum-starved
# Description: as §2, §4
# MCF-7 cells = experiment: Cell counting assay, MCF-7; format: cell-based; conditions: 48 hr; 10^−6 M 25-OH-D3-3-BE, 10^−7 M 1,25(OH)2D3; not serum-starved
# Description: as §2, §4
# MC3T3 mouse bone cells = experiment: Cell counting assay, MC3T3; format: cell-based; conditions: 48 hr; 10^−6 M 25-OH-D3-3-BE, 10^−7 M 1,25(OH)2D3; not serum-starved
# Description: as §2, §4
# DU 145 cells = experiment: Efficacy study of 25-OH-D3-3-BE in DU 145 tumor-bearing athymic nude mice (oral gavage); format: in vivo; conditions: for average tumor volume at the end of treatment: oral gavage every third day, day 11 to 31; for anti-tumor effect: mouse prostate tumor xenograft model
# Description: Male, athymic nude mice (average weight 20 gm) were fed normal rat chow and water ad libitum. They were inoculated with DU 145 cells, grown in culture, in the flank under light anesthesia. […] Administration of the compound was done by oral gavage on every third day (when weights were determined). Treatment started on day 11 and stopped on day 31; and they were left untreated for several additional days (as shown in FIG. 26) when they were sacrificed and blood was collected.
# DU-145 cells = experiment: 3H-thymidine incorporation assay in DU-145 cells; format: cell-based, human; conditions: for anti-proliferative effect in DU-145 cells: 10^−6M, separate experiment
# 24-OHase = experiment: Message for 24-OHase in LNCaP cells; format: cell-based
# normal kidney cells = experiment: 3H-thymidine incorporation assay in normal kidney cells; format: cell-based; conditions: 10^−6M
# [6] = test system: DU-145 human prostate cancer cells; experiment: DU-145 xenograft efficacy, p.o. administration (Example 11); format: in vivo, nude mice; conditions: p.o.; calcitriol 0.5 μg/kg and 1.0 μg/kg; AMPI-109 0.5 μg/kg
# [7] = test system: Normal prostate WPMY cells; experiment: Viability testing by MTT reduction in normal prostate cells; format: cell-based; conditions: 24 hours; AMPI-107 1 and 10 μM, Calcitrol 1 μM
# Description: MTT is reduced in metabolically active cells, in part by the action of dehydrogenase enzymes, to generate reducing equivalents such as NADH and NADPH. The resulting intracellular purple formazan can be solubilized and quantified by spectrophotometry. After 5 minutes at room temperature, absorbances in plates were measured using a plate analyzer set for in dual wavelength comparisons at wavelength of 540 nm with a reference wavelength of 620 nm.
# [8] = test system: DU-145 Prostate Cancer Cells; experiment: Cell-counting antiproliferative evaluation, DU-145; format: cell-based, human; conditions: Calcitrol 10^−6M, AMPI-107 10^−5M; dosed days 1, 3, 5, counted 7th day
# Description: (§5) Prostate cancer cells (DU-145, PC-3 and LNCaP) were grown in DMEM medium with 10% FBS, antibiotics, etc. […] Results are designated as percentage of ethanol control.
# [9] = test system: LNCaP prostate cancer cells; experiment: Cell-counting antiproliferative evaluation, LNCaP; format: cell-based; conditions: Calcitrol 10^−6M, AMPI-107 10^−5M; dosed days 1, 3, 5, counted 7th day
# Description: as §5
# [10] = test system: PC-3 Prostate Cancer Cells; experiment: Cell-counting antiproliferative evaluation, PC-3; format: cell-based; set-up: dose or concentration left out as unconfirmed; conditions: dosed days 1, 3, 5, counted 7th day
# Description: as §5
# [11] = test system: DU 145 human androgen-insensitive prostate cancer cells; experiment: AMPI-107 in DU 145 xenograft, i.p. administration (Example 17); format: in vivo
# From the text: (§6) Male, athymic mice (average weight 20 gm) were fed normal rat chow and water ad libitum. They were inoculated with DU 145 human androgen-insensitive prostate cancer cells (10^6), grown in culture in the flank under light anesthesia. […] Treatment started on day 11 and stopped on day 30; and they were left untreated for two (2) additional days when they were sacrificed.
# [12] = test system: DU 145 human androgen-insensitive prostate cancer cells; experiment: AMPI-107 in DU 145 xenograft, p.o. administration (Example 17); format: in vivo
# From the text: as §6
# [13] = test system: RCC 54 kidney cancer cells; conditions: 7.5×10^−7 to 10^−6M
# Description: In a typical assay cells were grown to 50-60% confluence in 24-well plates in respective media containing 5% FBS, and serum starved for 20 hours, followed by treatment with various agents (in 0.1% ethanolic solution) or ethanol (vehicle) in serum-containing medium for 16 hours. After the treatment media was removed from the wells and replaced with media containing ^3H-thymidine (Sigma, 0.1 μCi) per well, and the cells were incubated for 3 hours at 37° C. After this period media was removed by aspiration and the cells were washed thoroughly (3×0.5 ml) with PBS. Ice-cold 5% perchloric acid solution (0.5 ml) was added to each well and the cells were incubated on ice for 20 minutes. After this incubation, perchloric acid was removed by aspiration, replaced with 0.5 ml of fresh perchloric acid solution and the cells were incubated at 70° C. for 20 minutes. Solution from each well was mixed with scintillation fluid and counted in a liquid scintillation counter. There were eight (8) wells per sample; statistics was carried out by Student's t test.
compound,measurement,setting,value
"C=C1CC[C@H](O)C/C1=C/C=C1\CCC[C@]2(C)[C@@H]([C@H](C)CCCC(C)(C)O)CC[C@@H]12 [25-OH-D3, 25-hydroxyvitamin D3, reference compound]",growth reduction of PC-3 cells,[1],marginal antiproliferative effect
"C=C1CCC(OC(=O)CBr)CC1=CC=C1CCCC2(C)C1CCC2C(C)CCCC(C)(C)O (stereo not drawn) [AMPI-105, 25-hydroxyvitamin D3-3-bromoacetate]","growth inhibition in keratinocytes relative to 1,25(OH)2D3",[2],"stronger than an equivalent amount of 1,25 (OH)2D3"
same,"growth inhibition in MCF-7 cells relative to 1,25(OH)2D3",[3],"weaker than 1,25(OH)2D3"
same,growth inhibition of PZ-HPV-7 cells,"[4]; 10^−6 M, relative to EtOH",approximately 50%
same,cytotoxicity to LNCaP cells,"[5]; 10^−6 M, phase contrast microscope",cytotoxic
same,growth inhibition of LNCaP cells,"[5]; 10^−6 M, relative to EtOH",~98%
same,cytotoxicity to PC-3 cells,[1]; phase contrast microscope,cytotoxic
same,growth reduction of PC-3 cells,[1],90%
same,number of LNCaP cells,LNCaP cells,sharply reduced number of cells
same,number of LAPC-4 cells,LAPC-4 cells,sharply reduced number of cells
same,number of MCF-7 cells,MCF-7 cells,affected to a much lesser extent
same,number of MC3T3 cells,MC3T3 mouse bone cells,affected to a much lesser extent
same,average tumor volume at the end of treatment,DU 145 cells; 0.25 μg/kg,650 mm^3
same,average tumor volume at the end of treatment,DU 145 cells; 0.5 μg/kg,500 mm^3
same,gross weight of the animals versus untreated,DU 145 cells; during and after the treatment,no significant difference
same,anti-tumor effect,DU 145 cells,strong anti-tumor activity
same,anti-tumor effect,DU 145 cells; listed as 25-OH-D3-3-BE,dose-dependent anti-tumor effect
"C=C1/C(=C\C=C2/CCC[C@]3(C)[C@@H]([C@H](C)/C=C/C=C/C(O)(CC)CC)CC[C@@H]23)C[C@@H](O)C[C@@H]1O [EB-1089, reference compound]",anti-proliferative effect in DU-145 cells,DU-145 cells,failed to produce any discernible anti-proliferative effect
C=C1/C(=C\C=C2/CCC[C@]3(C)[C@@H]([C@H](C)/C=C/[C@@H](O)C4(C(=O)OCCCC)CC4)CC[C@@H]23)C[C@@H](O)C[C@@H]1O [ZK 159222],message for 24-OHase,24-OHase,obliterated
"C=C1/C(=C\C=C2/CCC[C@]3(C)[C@@H]([C@H](C)CCCC(C)(C)O)CC[C@@H]23)C[C@@H](O)C[C@@H]1O [calcitriol, 1,25-dihydroxyvitamin D3, reference compound]",impact on normal kidney cells versus control,normal kidney cells,neither Calcitriol nor AMPI-109 had any statistically different impact
same,antiproliferative effect in DU-145 cells,"DU-145 cells; 2.5×10^−7M to 10^−6M, 20 hours",no effect
same,anti-proliferative effect in DU-145 cells,DU-145 cells,failed to produce any discernible anti-proliferative effect
same,body weight,[6],significant loss in body weight
same,inhibition at 1 µM,"[4]; Prostate cell, read-out: growth inhibition of PZ-HPV-7 cells",~65%
same,inhibition at 1 µM,"[5]; Homo sapiens, LNCaP, read-out: growth inhibition of LNCaP cells",~60%
same,growth reduction of PC-3 cells,[1],70%
same,number of LNCaP cells,LNCaP cells,little effect
same,number of LAPC-4 cells,LAPC-4 cells,little effect
same,number of MCF-7 cells,MCF-7 cells,little effect
same,number of MC3T3 cells,MC3T3 mouse bone cells,little effect
same,cell metabolism (MTT reduction),[7],"slightly, but significantly reduce cell metabolism"
same,growth inhibitory activity in DU-145 cells,[8],approximately similar growth inhibitory activity
same,growth inhibition of LNCaP cells,[9],strongly inhibited the growth
same,growth inhibition of PC-3 cells,[10],strongly inhibited the growth
same,toxicity (body weight),"[11]; mouse, in vivo, ip, 1 mg/kg",clearly toxic as evidenced by considerable loss of body weight
same,toxicity (body weight),"[12]; mouse, in vivo, po, 1 mg/kg",clearly toxic as evidenced by considerable loss of body weight
same,message for 24-OHase,24-OHase,up regulated
same,reduction of proliferation of RCC 54 kidney cancer cells,[13],did not have any statistically different impact
Vitamin D3-3-epoxide [AMPI-107],growth inhibitory activity in DU-145 cells,[8],approximately similar growth inhibitory activity; also recorded: equally effective
same,growth inhibition of LNCaP cells,[9],strongly inhibited the growth and significantly stronger effect and more
same,efficacy on tumor size,"[11]; 1 mg/kg i.p. every third day, day 11 to 30",strongly reduced tumor size
same,toxicity (body weight),"[11]; i.p., hormone 0.5 and 1.0 μg/kg, MPI 107 1 mg/kg",completely non-toxic
same,efficacy on tumor size,"[12]; 1 mg/kg p.o. every third day, day 11 to 30",strongly reduced tumor size
same,toxicity (body weight),"[12]; p.o., hormone 0.5 and 1.0 μg/kg, MPI 107 1 mg/kg",completely non-toxic
25-hydroxyvitamin D3-3-epoxide [AMPI-106],anti-tumor effect,DU 145 cells,strong anti-tumor activity
